# Reference: patent publication US20240335402A1, “BIODEGRADABLE ANTI-INFECTIVE FORMULATIONS” (New Mexico Tech University Research Park Corporation, priority 2023, published 2024)
# Tested on: colistin (polymyxin E, or PME) resistant bacterium S. maltophilia
# Assay: Spot test on lawn of colistin resistant bacterium
# Assay type: cell-based
# Details: 10 μL spotted, 37° C., 2 days
smiles,measurement,value
O=C([O-])CC(O)(CC(=O)[O-])C(=O)[O-].[Na+].[Na+].[Na+] [Trisodium citrate],activity / kill of S. maltophilia lawn,did not work as well as CTAC
